Test system: MV-4-11 cells
Test: Gene expression microarray analysis (Affymetrix PrimeView) and GSEA
Format: cell-based, human
Design: RFU PODN (11730768_x_at) / Fold change /veh PODN (11730768_x_at) / RFU LINC00158 (11744669_a_at) / Fold change /veh LINC00158 (11744669_a_at) / RFU DUSP10 (11751237_a_at) / Fold change /veh DUSP10 (11751237_a_at) / RFU ID3 (11757404_x_at) / Fold change /veh ID3 (11757404_x_at) / RFU PLEKHG5 (11737974_s_at) / Fold change /veh PLEKHG5 (11737974_s_at) / RFU LRRC4B (11730491_at) / Fold change /veh LRRC4B (11730491_at) / RFU GIMAP4 (11747438_a_at) / Fold change /veh GIMAP4 (11747438_a_at) / RFU KRT8 (11758183_x_at) / Fold change /veh KRT8 (11758183_x_at) / RFU CNN1 (11734310_a_at) / Fold change /veh CNN1 (11734310_a_at) / RFU VPS37D (11726825_at) / Fold change /veh VPS37D (11726825_at) / RFU C10orf10 (11716522_x_at) / Fold change /veh C10orf10 (11716522_x_at) / RFU KIR2DL2 /// KIR2DL4 /// KIR2DL5A /// KIR2DL5B /// KIR2DS1 /// KIR2DS2 /// KIR2DS3 /// KIR2DS4 /// KIR3DL3 /// KIR3DL3 /// KIR3DS1 (11738374_at) / Fold change /veh KIR2DL2 /// KIR2DL4 /// KIR2DL5A /// KIR2DL5B /// KIR2DS1 /// KIR2DS2 /// KIR2DS3 /// KIR2DS4 /// KIR3DL3 /// KIR3DL3 /// KIR3DS1 (11738374_at) / RFU C1QL1 (11718748_at) / Fold change /veh C1QL1 (11718748_at) / RFU TMPRSS4 (11747572_a_at) / Fold change /veh TMPRSS4 (11747572_a_at) / RFU HAMP (11756126_x_at) / Fold change /veh HAMP (11756126_x_at) / RFU RNFT2 (11725882_a_at) / Fold change /veh RNFT2 (11725882_a_at) / RFU NR4A2 (11747474_a_at) / Fold change /veh NR4A2 (11747474_a_at) / RFU ABCC12 (11746883_a_at) / Fold change /veh ABCC12 (11746883_a_at) / RFU TMEM136 (11760407_x_at) / Fold change /veh TMEM136 (11760407_x_at) / RFU CLDN22 /// WWC2 (11732394_at) / Fold change /veh CLDN22 /// WWC2 (11732394_at) / RFU HLA-DPB1 (11760878_x_at) / Fold change /veh HLA-DPB1 (11760878_x_at) / RFU SPINT1 (11716480_a_at) / Fold change /veh SPINT1 (11716480_a_at) / RFU GAP43 (11754022_s_at) / Fold change /veh GAP43 (11754022_s_at) / RFU A4GNT (11735810_at) / Fold change /veh A4GNT (11735810_at) / RFU PRB3 (11715151_x_at) / Fold change /veh PRB3 (11715151_x_at) / RFU TUBB4B (11761932_at) / Fold change /veh TUBB4B (11761932_at) / RFU CAPN14 (11732068_a_at) / Fold change /veh CAPN14 (11732068_a_at) / RFU TMCC2 (11721928_a_at) / Fold change /veh TMCC2 (11721928_a_at) / RFU IRGQ (11745062_a_at) / Fold change /veh IRGQ (11745062_a_at) / RFU FAM174B (11720279_a_at) / Fold change /veh FAM174B (11720279_a_at) / RFU TMPRSS4 (11748680_a_at) / Fold change /veh TMPRSS4 (11748680_a_at) / RFU FAM212B (11763350_a_at) / Fold change /veh FAM212B (11763350_a_at) / RFU PLEKHG5 (11743358_a_at) / Fold change /veh PLEKHG5 (11743358_a_at) / RFU ZSCAN30 (11745921_a_at) / Fold change /veh ZSCAN30 (11745921_a_at) / RFU CMKLR1 (11741424_a_at) / Fold change /veh CMKLR1 (11741424_a_at) / RFU LOC101060620 /// MAPK8IP1 (11723275_at) / Fold change /veh LOC101060620 /// MAPK8IP1 (11723275_at) / RFU SPTSSB (11747773_x_at) / Fold change /veh SPTSSB (11747773_x_at) / RFU PRSS12 (11739890_at) / Fold change /veh PRSS12 (11739890_at) / RFU BIN1 (11741810_x_at) / Fold change /veh BIN1 (11741810_x_at) / RFU WNT11 (11732464_a_at) / Fold change /veh WNT11 (11732464_a_at) / RFU C10orf10 (11716521_a_at) / Fold change /veh C10orf10 (11716521_a_at) / RFU C5orf56 (11738089_at) / Fold change /veh C5orf56 (11738089_at) / RFU CYB561 (11721691_x_at) / Fold change /veh CYB561 (11721691_x_at) / RFU ANKRD19P (11752326_a_at) / Fold change /veh ANKRD19P (11752326_a_at) / RFU OR2T12 /// OR2T33 /// OR2T8 (11738714_s_at) / Fold change /veh OR2T12 /// OR2T33 /// OR2T8 (11738714_s_at) / RFU VCAN (11748164_a_at) / Fold change /veh VCAN (11748164_a_at) / RFU JSRP1 (11732532_at) / Fold change /veh JSRP1 (11732532_at) / RFU KRTAP10-11 (11738290_x_at) / Fold change /veh KRTAP10-11 (11738290_x_at) / RFU MYO3A (11730013_a_at) / Fold change /veh MYO3A (11730013_a_at) / RFU EBF3 (11725865_a_at) / Fold change /veh EBF3 (11725865_a_at) / RFU CAMK2N1 (11719241_x_at) / Fold change /veh CAMK2N1 (11719241_x_at) / RFU C5orf56 (11738088_a_at) / Fold change /veh C5orf56 (11738088_a_at) / RFU OLFML3 (11715873_a_at) / Fold change /veh OLFML3 (11715873_a_at) / RFU LOC100653217 /// NTM (11731650_a_at) / Fold change /veh LOC100653217 /// NTM (11731650_a_at) / RFU MAPK11 (11762145_a_at) / Fold change /veh MAPK11 (11762145_a_at) / RFU FIZ1 (11724087_x_at) / Fold change /veh FIZ1 (11724087_x_at) / RFU OASL (11726364_x_at) / Fold change /veh OASL (11726364_x_at) / RFU SOX15 (11748057_x_at) / Fold change /veh SOX15 (11748057_x_at) / RFU CD79A (11719716_a_at) / Fold change /veh CD79A (11719716_a_at) / RFU HIST1H1D (11736915_at) / Fold change /veh HIST1H1D (11736915_at) / RFU CASKIN2 (11723855_a_at) / Fold change /veh CASKIN2 (11723855_a_at) / RFU LOC730098 (11760151_x_at) / Fold change /veh LOC730098 (11760151_x_at) / RFU OR4N2 (11742367_at) / Fold change /veh OR4N2 (11742367_at) / RFU PRRT2 (11749266_a_at) / Fold change /veh PRRT2 (11749266_a_at) / RFU SNX32 (11753110_a_at) / Fold change /veh SNX32 (11753110_a_at) / RFU CDHR5 (11726645_a_at) / Fold change /veh CDHR5 (11726645_a_at) / RFU RCAN1 (11760418_a_at) / Fold change /veh RCAN1 (11760418_a_at) / RFU FAM167A (11723789_a_at) / Fold change /veh FAM167A (11723789_a_at) / RFU FAM26E (11764081_at) / Fold change /veh FAM26E (11764081_at) / RFU ISYNA1 (11749810_s_at) / Fold change /veh ISYNA1 (11749810_s_at) / RFU ACY1 (11761880_at) / Fold change /veh ACY1 (11761880_at) / RFU 11764098_at / Fold change /veh 11764098_at / RFU SAMD14 (11745864_x_at) / Fold change /veh SAMD14 (11745864_x_at) / RFU NPB (11741838_a_at) / Fold change /veh NPB (11741838_a_at) / RFU TMPRSS6 (11731388_a_at) / Fold change /veh TMPRSS6 (11731388_a_at) / RFU KRTAP10-2 (11738614_at) / Fold change /veh KRTAP10-2 (11738614_at) / RFU ARHGAP8 /// PRR5-ARHGAP8 (11727945_x_at) / Fold change /veh ARHGAP8 /// PRR5-ARHGAP8 (11727945_x_at) / RFU KRTAP5-7 /// NADSYN1 (11734609_at) / Fold change /veh KRTAP5-7 /// NADSYN1 (11734609_at) / RFU RASL12 (11751679_a_at) / Fold change /veh RASL12 (11751679_a_at) / RFU CDKN2B (11736163_a_at) / Fold change /veh CDKN2B (11736163_a_at) / RFU PRF1 (11729649_at) / Fold change /veh PRF1 (11729649_at) / RFU, ZNF638 /// ZNF638-IT1 / Fold change vs veh, ZNF638 /// ZNF638-IT1 / RFU, PANK3 / Fold change vs veh, PANK3 / RFU, SH3YL1 / Fold change vs veh, SH3YL1 / RFU, ZEB2 / Fold change vs veh, ZEB2 / RFU, NRIP1 / Fold change vs veh, NRIP1 / RFU, PTTG1IP / Fold change vs veh, PTTG1IP / RFU, CAPN2 / Fold change vs veh, CAPN2 / RFU, MED14 / Fold change vs veh, MED14 / RFU, SNORA58 / Fold change vs veh, SNORA58 / RFU, C1orf63 / Fold change vs veh, C1orf63 / RFU, LRRFIP1 / Fold change vs veh, LRRFIP1 / RFU, NDUFAF7 / Fold change vs veh, NDUFAF7 / RFU, SLC12A2 / Fold change vs veh, SLC12A2 / RFU, IBTK / Fold change vs veh, IBTK / RFU, ESF1 / Fold change vs veh, ESF1 / Fold change vs veh, TMEM50B / RFU, TAOK1 / Fold change vs veh, TAOK1 / RFU, ACBD3 / Fold change vs veh, ACBD3 / RFU, TMA16 / Fold change vs veh, TMA16 / RFU, RWDD3 / Fold change vs veh, RWDD3 / RFU, BCAT1 / Fold change vs veh, BCAT1 / RFU, EDEM3 / Fold change vs veh, EDEM3 / RFU, TMEM33 / Fold change vs veh, TMEM33 / RFU, WDR75 / Fold change vs veh, WDR75 / RFU, AHCTF1 / Fold change vs veh, AHCTF1 / RFU, TFRC / Fold change vs veh, TFRC / RFU, ZDHHC17 / Fold change vs veh, ZDHHC17 / RFU, NOM1 / Fold change vs veh, NOM1 / RFU, ARL8B / Fold change vs veh, ARL8B / RFU, ZBTB11 / Fold change vs veh, ZBTB11 / RFU, TAMM41 / Fold change vs veh, TAMM41 / RFU, KIAA1704 /// LOC100996395 / Fold change vs veh, KIAA1704 /// LOC100996395 / RFU, ING1 / Fold change vs veh, ING1 / RFU, TRMT61B / Fold change vs veh, TRMT61B / RFU, FUBP3 / Fold change vs veh, FUBP3 / RFU, TP53 / Fold change vs veh, TP53 / RFU, TNKS2 / Fold change vs veh, TNKS2 / RFU, ZFP14 / Fold change vs veh, ZFP14 / RFU, ACTR2 / Fold change vs veh, ACTR2 / RFU, PPP3R1 / Fold change vs veh, PPP3R1 / RFU, PIK3R1 / Fold change vs veh, PIK3R1 / RFU, HNRNPA1 / Fold change vs veh, HNRNPA1 / RFU, RNF170 / Fold change vs veh, RNF170 / RFU, ZNF28 / Fold change vs veh, ZNF28 / RFU, RNGTT / Fold change vs veh, RNGTT / RFU, OGT / Fold change vs veh, OGT / RFU, BRD1 / Fold change vs veh, BRD1 / RFU, MARS / Fold change vs veh, MARS / RFU, ZNF655 / Fold change vs veh, ZNF655 / RFU, FAHD1 / Fold change vs veh, FAHD1 / RFU, BDP1 / Fold change vs veh, BDP1 / RFU, LRRCC1 / Fold change vs veh, LRRCC1 / RFU, ARID1A / Fold change vs veh, ARID1A / RFU, ZNF146 / Fold change vs veh, ZNF146 / RFU, ZNF330 / Fold change vs veh, ZNF330 / RFU, GPN3 / Fold change vs veh, GPN3 / RFU, C9orf123 / Fold change vs veh, C9orf123 / RFU, N4BP2L2 / Fold change vs veh, N4BP2L2 / RFU, ARFIP1 / Fold change vs veh, ARFIP1 / RFU, FAM179B / Fold change vs veh, FAM179B / RFU, BCL10 / Fold change vs veh, BCL10 / RFU, UHRF1BP1L / Fold change vs veh, UHRF1BP1L / RFU, BET1 / Fold change vs veh, BET1 / RFU, CNOT2 / Fold change vs veh, CNOT2 / RFU, ZNF268 / Fold change vs veh, ZNF268 / Fold change vs veh, ZNF507 / RFU, DGCR2 / Fold change vs veh, DGCR2 / RFU, WDSUB1 / Fold change vs veh, WDSUB1 / Fold change vs veh, HSP90B1 /// MIR3652 / RFU, ADSS / Fold change vs veh, ADSS / RFU, GK / Fold change vs veh, GK / RFU, ZNF148 / Fold change vs veh, ZNF148 / RFU, TAF9 / Fold change vs veh, TAF9 / RFU, SLC1A5 / Fold change vs veh, SLC1A5 / RFU, SLMO2 / Fold change vs veh, SLMO2 / RFU, ABCC4 / Fold change vs veh, ABCC4 / RFU, LOC101060439 /// RAP1B / Fold change vs veh, LOC101060439 /// RAP1B / RFU, RFX7 / Fold change vs veh, RFX7 / RFU, GTPBP10 / Fold change vs veh, GTPBP10 / RFU, CNEP1R1 / Fold change vs veh, CNEP1R1 / RFU, BIVM-ERCC5 /// ERCC5 / Fold change vs veh, BIVM-ERCC5 /// ERCC5 / RFU, ILF3 / Fold change vs veh, ILF3 / RFU 11762660_at / Fold change /veh 11762660_at / RFU VCAN (11757783_s_at) / Fold change /veh VCAN (11757783_s_at) / RFU DDX43 (11728927_at) / Fold change /veh DDX43 (11728927_at) / RFU KRT8 (11758188_x_at) / Fold change /veh KRT8 (11758188_x_at) / RFU NKD1 (11759106_at) / Fold change /veh NKD1 (11759106_at) / RFU SRD5A1 (11742802_a_at) / Fold change /veh SRD5A1 (11742802_a_at) / RFU TPSAB1 /// TPSB2 (11721975_s_at) / Fold change /veh TPSAB1 /// TPSB2 (11721975_s_at) / RFU GSTM3 (11746129_a_at) / Fold change /veh GSTM3 (11746129_a_at) / RFU IL23R (11737362_x_at) / Fold change /veh IL23R (11737362_x_at) / RFU TMEM51 (11727254_a_at) / Fold change /veh TMEM51 (11727254_a_at) / RFU PIWIL2 (11732686_x_at) / Fold change /veh PIWIL2 (11732686_x_at) / RFU ORM1 (11744905_x_at) / Fold change /veh ORM1 (11744905_x_at) / RFU CCDC152 (11743942_at) / Fold change /veh CCDC152 (11743942_at) / RFU ECM1 (11717891_a_at) / Fold change /veh ECM1 (11717891_a_at) / RFU IL23R (11748794_a_at) / Fold change /veh IL23R (11748794_a_at) / RFU TNFAIP8L3 (11732012_x_at) / Fold change /veh TNFAIP8L3 (11732012_x_at) / RFU MBOAT4 (11741988_at) / Fold change /veh MBOAT4 (11741988_at) / RFU 11764193_at / Fold change /veh 11764193_at / RFU TMEM53 (11763286_at) / Fold change /veh TMEM53 (11763286_at) / RFU MAGEB2 (11727129_at) / Fold change /veh MAGEB2 (11727129_at) / RFU TMEM200A (11744735_a_at) / Fold change /veh TMEM200A (11744735_a_at) / RFU CCDC152 (11751479_a_at) / Fold change /veh CCDC152 (11751479_a_at) / RFU FAM211A (11726209_a_at) / Fold change /veh FAM211A (11726209_a_at) / RFU RGS16 (11746705_a_at) / Fold change /veh RGS16 (11746705_a_at) / RFU VCAN (11755009_s_at) / Fold change /veh VCAN (11755009_s_at) / RFU RHOB (11743442_s_at) / Fold change /veh RHOB (11743442_s_at) / RFU RGS16 (11720943_a_at) / Fold change /veh RGS16 (11720943_a_at) / RFU RGS16 (11720944_at) / Fold change /veh RGS16 (11720944_at) / RFU, VPS4B / Fold change vs veh, VPS4B / RFU, CREB1 / Fold change vs veh, CREB1 / RFU, DNAJC13 / Fold change vs veh, DNAJC13 / RFU, GNAQ / Fold change vs veh, GNAQ / RFU, CDK5R1 / Fold change vs veh, CDK5R1 / RFU, ZRANB3 / Fold change vs veh, ZRANB3 / RFU, CUL4A / Fold change vs veh, CUL4A / RFU, CCNY / Fold change vs veh, CCNY / RFU, UFL1 / Fold change vs veh, UFL1 / RFU, COG3 / Fold change vs veh, COG3 / RFU, DIAPH2 / Fold change vs veh, DIAPH2 / RFU, SKA2 / Fold change vs veh, SKA2 / RFU, AFF3 / Fold change vs veh, AFF3 / RFU, LMF1 / Fold change vs veh, LMF1 / RFU, IPO11 / Fold change vs veh, IPO11 / RFU, DFFB / Fold change vs veh, DFFB / RFU, FOXP1 / Fold change vs veh, FOXP1 / RFU, CARD8 / Fold change vs veh, CARD8 / RFU, STRN3 / Fold change vs veh, STRN3 / RFU, ADK / Fold change vs veh, ADK / RFU, RASSF2 / Fold change vs veh, RASSF2 / RFU, WIPF1 / Fold change vs veh, WIPF1 / RFU, LARP1B / Fold change vs veh, LARP1B / RFU, RASA1 / Fold change vs veh, RASA1 / RFU, RB1 / Fold change vs veh, RB1 / RFU, PPFIA1 / Fold change vs veh, PPFIA1 / RFU, MAT2A / Fold change vs veh, MAT2A / RFU, CCT5 / Fold change vs veh, CCT5 / RFU, WDR92 / Fold change vs veh, WDR92 / RFU, CUX1 / Fold change vs veh, CUX1 / RFU, TTC7A / Fold change vs veh, TTC7A / RFU, TMEM135 / Fold change vs veh, TMEM135 / RFU, DEPTOR / Fold change vs veh, DEPTOR / RFU, CPM / Fold change vs veh, CPM / RFU, DNAJB6 / Fold change vs veh, DNAJB6 / RFU, CACNA2D3 / Fold change vs veh, CACNA2D3 / RFU, DTX4 / Fold change vs veh, DTX4 / RFU, TFCP2 / Fold change vs veh, TFCP2 / RFU, GMCL1 /// GMCL1P1 / Fold change vs veh, GMCL1 /// GMCL1P1 / RFU, AEBP2 / Fold change vs veh, AEBP2 / RFU, SNHG1 /// SNORD22 /// SNORD25 /// SNORD26 /// SNORD27 /// SNORD28 /// SNORD29 /// SNORD31 / Fold change vs veh, SNHG1 /// SNORD22 /// SNORD25 /// SNORD26 /// SNORD27 /// SNORD28 /// SNORD29 /// SNORD31 / Fold change (Aza/veh), C12orf56 (ProbeSet 11735607_a_at) / Fold change (ACY-1035/veh), C12orf56 (ProbeSet 11735607_a_at) / Fold change (Aza/veh), FGFR1OP (ProbeSet 11751329_s_at) / Fold change (ACY-1035/veh), FGFR1OP (ProbeSet 11751329_s_at) / Fold change (Aza/veh), VPS36 (ProbeSet 11739960_a_at) / Fold change (ACY-1035/veh), VPS36 (ProbeSet 11739960_a_at) / RFU SYPL1 (11715823_x_at) / Fold change /veh SYPL1 (11715823_x_at) / RFU IGFBP7 (11715501_s_at) / Fold change /veh IGFBP7 (11715501_s_at) / RFU REEP3 (11722064_at) / Fold change /veh REEP3 (11722064_at) / RFU IGLL1 (11728026_x_at) / Fold change /veh IGLL1 (11728026_x_at): dose or concentration left out as unconfirmed
Details: MV-4-11 cells, 48 hours

Nc1ccc(-c2cccs2)cc1NC(=O)c1ccc2c(c1)cc(C1CC1)n2CCN1CCOCC1 [ACY-1035]
Fold change /veh PODN (11730768_x_at): 1.05
